Measured values as given in paper PMC9655037, “Alternation of Organ-Specific Exposure in LPS-Induced Pneumonia Mice after the Inhalation of Tetrandrine Is Governed by Metabolizing Enzyme Suppression and Lysosomal Trapping” (International Journal of Molecular Sciences, 2022).
Where “and” joins values, the source holds several entries; their conditions need not be identical. Equal entries are not always repeated.

Assay: Tissue distribution of TET after a single i.t. administration in normal and LPS-treated mice
Conditions: for Kp / AUC(0-inf) / Cmax / MRT / Tmax / half-life / AUC(0-t): BALB/c, mouse; for Kp: other: intratracheal (i.t.), Kp (AUC in tissue divided by AUC in blood); for Kp / AUC(0-inf) / Cmax / MRT / Tmax / half-life / AUC(0-t) / Kp (AUC in tissue divided by AUC in blood): 15 mg/kg, 15 mg/kg i.t.; for AUC(0-inf) / Cmax / MRT / Tmax / half-life / AUC(0-t): inhaled or intranasal
Description: The different tissue distribution characteristics of TET in normal and pneumonia model mice via i.t. delivery were investigated. Thirty BALB/c mice were randomly divided into ten groups (n = 3 for each group). Five groups of mice were intratracheally injected with 15 mg/kg TET (dissolved in 22.5 mg/mL aspartic acid solution) as control groups, and the other five groups received i.t. administration of 15 mg/kg TET 6 h after i.t. injection of 50 μL LPS (5 mg/mL) as model groups. One control group and one model group were sacrificed simultaneously at the set time points of 2, 4, 8, 24, and 144 h after the administration of TET. After a cardiac puncture to obtain blood samples, tissue samples including heart, liver, spleen, lung, kidney, stomach, intestine, and brain were immediately harvested and all the tissues were thoroughly rinsed in ice physiological saline. All the tissue samples were weighed and stored with blood samples at −40 °C for LC-MS/MS analysis.
Pharmacokinetic parameters including t1/2, AUC(0-t), AUC(0-∞), and MRT were calculated using WinNonlin 7.0 (Pharsight, CA) by the non-compartmental model. Initial plasma concentration post i.v. (C0-i.v.) was extrapolated from the first three points of the logarithmic plasma concentration. The area under the blood concentration–time curve from t = 0 to infinity (AUCinf) was estimated using the linear trapezoidal rule. Blood clearance (CL) was calculated as the i.v. dose divided by AUCinf. Apparent steady-state distribution volume (Vss) was determined by the clearance multiplied by mean residence time. The distribution volume in the elimination phase (Vz) was determined by the clearance divided by the first-order rate constant of the terminal elimination phase (λz). The tissue partition ratio (Kp) of each tissue was calculated as Equation (1). (1) Kp=AUC(0−∞,tissue)/AUC(0−∞,plasma)

Which results are given for `COc1ccc2cc1Oc1ccc(cc1)C[C@H]1c3cc(c(OC)cc3CCN1C)Oc1c(OC)c(OC)cc3c1[C@H](C2)N(C)CC3` [TET, Tetrandrine]?
Kp (adipose / blood, LPS-treated mice, adipose): 2.6; Kp (adipose / blood, normal mice, adipose): 2.4; AUC(0-inf) (adipose, LPS-treated mice): 816 ± 429 µg·h/mL; AUC(0-inf) (adipose, normal mice): 501 ± 88.3 µg·h/mL; Cmax (adipose, LPS-treated mice): 5920 ± 1410 ng/mL; Cmax (adipose, normal mice): 7380 ± 1790 ng/mL; MRT (adipose, LPS-treated mice): 102 ± 57.9 h; MRT (adipose, normal mice): 67.7 ± 37.1 h; Tmax (adipose, LPS-treated mice): 18.7 ± 9.24 h; Tmax (adipose, normal mice): 5.33 ± 2.31 h; half-life (adipose, t1/2, LPS-treated mice): 75.2 ± 35.2 h; half-life (adipose, t1/2, normal mice): 54 ± 21.5 h; AUC(0-inf) (blood, LPS-treated mice): 326 ± 12.9 µg·h/mL; AUC(0-inf) (blood, normal mice): 249 ± 16.4 µg·h/mL; Cmax (blood, LPS-treated mice): 1940 ± 225 ng/mL; Cmax (blood, normal mice): 2670 ± 50 ng/mL; MRT (blood, LPS-treated mice): 133 ± 26.1 h; MRT (blood, normal mice): 111 ± 23.1 h; Tmax (blood, LPS-treated mice): 24 h; Tmax (blood, normal mice): 3.33 ± 1.15 h; half-life (blood, t1/2, LPS-treated mice): 95.5 ± 17.6 h; half-life (blood, t1/2, normal mice): 83.2 ± 15.4 h; Kp (blood, LPS-treated mice, blood): 1; Kp (blood, normal mice, blood): 1; Kp (brain / blood, LPS-treated mice, brain): 0.6; Kp (brain / blood, normal mice, brain): 1; AUC(0-inf) (brain, LPS-treated mice): 179 ± 38.4 µg·h/mL; AUC(0-inf) (brain, normal mice): 190 ± 51.4 µg·h/mL; Cmax (brain, LPS-treated mice): 6430 ± 3790 ng/mL; Cmax (brain, normal mice): 10400 ± 9530 ng/mL; MRT (brain, LPS-treated mice): 112 ± 35.4 h; MRT (brain, normal mice): 56.8 ± 26.5 h; Tmax (brain, LPS-treated mice): 5.33 ± 2.31 h; Tmax (brain, normal mice): 2 h; half-life (brain, t1/2, LPS-treated mice): 92.6 ± 27.2 h; half-life (brain, t1/2, normal mice): 51.6 ± 17.2 h; Kp (heart / blood, LPS-treated mice, heart): 4.3; Kp (heart / blood, normal mice, heart): 5.1; AUC(0-t) (heart, LPS-treated mice): 940 ± 381 µg·h/mL; AUC(0-t) (heart, normal mice): 880 ± 22.2 µg·h/mL; AUC(0-inf) (heart, LPS-treated mice): 4090 ± 3400 µg·h/mL; AUC(0-inf) (heart, normal mice): 1410 ± 21.5 µg·h/mL; Cmax (heart, LPS-treated mice): 10800 ± 4010 ng/mL; Cmax (heart, normal mice): 14200 ± 3160 ng/mL; MRT (heart, LPS-treated mice): 643 ± 376 h; MRT (heart, normal mice): 137 ± 0.09 h; Tmax (heart, LPS-treated mice): 4 h; Tmax (heart, normal mice): 2.67 ± 1.15 h; half-life (heart, t1/2, LPS-treated mice): 449 ± 259 h; half-life (heart, t1/2, normal mice): 96.8 ± 6.46 h; AUC(0-t) (in vivo, LPS-treated mice, adipose): 566 ± 163 µg·h/mL; AUC(0-t) (in vivo, LPS-treated mice, blood): 219 ± 17.7 µg·h/mL; AUC(0-t) (in vivo, LPS-treated mice, brain): 129 ± 46.2 µg·h/mL; AUC(0-t) (in vivo, LPS-treated mice, kidney): 7940 ± 1170 µg·h/mL; AUC(0-t) (in vivo, LPS-treated mice, liver): 5890 ± 178 µg·h/mL; AUC(0-t) (in vivo, LPS-treated mice, muscle): 483 ± 89.5 µg·h/mL; AUC(0-t) (in vivo, LPS-treated mice, spleen): 9420 ± 942 µg·h/mL; AUC(0-t) (in vivo, normal mice, adipose): 421 ± 94.4 µg·h/mL; AUC(0-t) (in vivo, normal mice, blood): 175 ± 12.3 µg·h/mL; AUC(0-t) (in vivo, normal mice, brain): 168 ± 60.6 µg·h/mL; AUC(0-t) (in vivo, normal mice, intestine): 1460 ± 134 µg·h/mL; AUC(0-t) (in vivo, normal mice, kidney): 6510 ± 691 µg·h/mL; AUC(0-t) (in vivo, normal mice, liver): 4860 ± 334 µg·h/mL; AUC(0-t) (in vivo, normal mice, lung): 4310 ± 1000 µg·h/mL; AUC(0-t) (in vivo, normal mice, muscle): 359 ± 79.8 µg·h/mL; AUC(0-t) (in vivo, normal mice, spleen): 7940 ± 665 µg·h/mL; AUC(0-t) (in vivo, normal mice, stomach): 929 ± 163 µg·h/mL; Kp (intestine / blood, normal mice, intestine): 8.3; AUC(0-t) (intestine, LPS-treated mice): 2390 ± 196 µg·h/mL; AUC(0-inf) (intestine, LPS-treated mice): 2590 ± 271 µg·h/mL; AUC(0-inf) (intestine, normal mice): 1630 ± 130 µg·h/mL; Cmax (intestine, LPS-treated mice): 76500 ± 10900 ng/mL; Cmax (intestine, normal mice): 46700 ± 25900 ng/mL; MRT (intestine, LPS-treated mice): 42.4 ± 6.38 h; MRT (intestine, normal mice): 50.5 ± 2.31 h; Tmax (intestine, LPS-treated mice): 2 h; Tmax (intestine, normal mice): 4 h; half-life (intestine, t1/2, LPS-treated mice): 41.7 ± 4.93 h; half-life (intestine, t1/2, normal mice): 44.7 ± 1.94 h; Kp (intestine, LPS-treated mice, intestine): 11 ± 1.35; AUC(0-inf) (kidney, LPS-treated mice): 11000 µg·h/mL; AUC(0-inf) (kidney, normal mice): 8160 ± 422 µg·h/mL; Cmax (kidney, LPS-treated mice): 112000 ± 11500 ng/mL; Cmax (kidney, normal mice): 107000 ± 16600 ng/mL; MRT (kidney, LPS-treated mice): 101 ± 30 h; MRT (kidney, normal mice): 80.1 ± 16.6 h; Tmax (kidney, LPS-treated mice): 5.33 ± 2.31 h; Tmax (kidney, normal mice): 3.33 ± 1.15 h; half-life (kidney, t1/2, LPS-treated mice): 77.8 ± 18.1 h; half-life (kidney, t1/2, normal mice): 63.4 ± 8.09 h; Kp (kidney, LPS-treated mice, kidney): 36.2 ± 3.83; Kp (kidney, normal mice, kidney): 37.5 ± 5.7; AUC(0-inf) (liver, LPS-treated mice): 7430 ± 632 µg·h/mL; AUC(0-inf) (liver, normal mice): 5480 ± 237 µg·h/mL; Cmax (liver, LPS-treated mice): 76300 ± 7020 ng/mL; Cmax (liver, normal mice): 83300 ± 9290 ng/mL; MRT (liver, LPS-treated mice): 82.1 ± 15.6 h; MRT (liver, normal mice): 53.9 ± 8.29 h; Tmax (liver, LPS-treated mice): 3.33 ± 1.15 h; Tmax (liver, normal mice): 4 h; half-life (liver, t1/2, LPS-treated mice): 69.3 ± 14.8 h; half-life (liver, t1/2, normal mice): 47.5 ± 5.47 h; Kp (liver, LPS-treated mice, liver): 27 ± 1.72; Kp (liver, normal mice, liver): 28 ± 3.49; AUC(0-t) (lung, LPS-treated mice): 10000 µg·h/mL; AUC(0-inf) (lung, normal mice): 5300 ± 721 µg·h/mL; Cmax (lung, LPS-treated mice): ≥ 96200 ng/mL; Cmax (lung, normal mice): 60300 ± 3210 ng/mL; MRT (lung, normal mice): 78.3 ± 24.5 h; Tmax (lung, LPS-treated mice): ≥ 144 h; Tmax (lung, normal mice): 13.3 ± 9.24 h; half-life (lung, t1/2, normal mice): 65.1 ± 18.3 h; Kp (lung, LPS-treated mice, lung): 45.8 ± 6.49; Kp (lung, normal mice, lung): 24.7 ± 6.06; Kp (muscle / blood, normal mice, muscle): 2; AUC(0-inf) (muscle, LPS-treated mice): 674 ± 240 µg·h/mL; AUC(0-inf) (muscle, normal mice): 410 ± 80.1 µg·h/mL; Cmax (muscle, LPS-treated mice): 7510 ± 2110 ng/mL; Cmax (muscle, normal mice): 6120 ± 440 ng/mL; MRT (muscle, LPS-treated mice): 101 ± 44.4 h; MRT (muscle, normal mice): 57.7 ± 7.81 h; Tmax (muscle, LPS-treated mice): 6.67 ± 2.31 h; Tmax (muscle, normal mice): 4 ± 3.16 h; half-life (muscle, t1/2, LPS-treated mice): 78.8 ± 31.3 h; half-life (muscle, t1/2, normal mice): 49.2 ± 4.06 h; Kp (muscle, LPS-treated mice, muscle): 2.2 ± 0.31; AUC(0-inf) (spleen, LPS-treated mice): 16000 µg·h/mL; AUC(0-inf) (spleen, normal mice): 11300 µg·h/mL; Cmax (spleen, LPS-treated mice): 89700 ± 10700 ng/mL; Cmax (spleen, normal mice): 89700 ± 7090 ng/mL; MRT (spleen, LPS-treated mice): 157 ± 29.5 h; MRT (spleen, normal mice): 112 ± 34.7 h; Tmax (spleen, LPS-treated mice): 17.3 ± 11.5 h; Tmax (spleen, normal mice): 12 ± 10.6 h; half-life (spleen, t1/2, LPS-treated mice): 111 ± 18.3 h; half-life (spleen, t1/2, normal mice): 83.8 ± 22.7 h; Kp (spleen, LPS-treated mice, spleen): 43.3 ± 6.88; Kp (spleen, normal mice, spleen): 45.7 ± 6.62; Kp (stomach / blood, LPS-treated mice, stomach): 6.1; Kp (stomach / blood, normal mice, stomach): 5.3; AUC(0-t) (stomach, LPS-treated mice): 1340 ± 192 µg·h/mL; AUC(0-inf) (stomach, LPS-treated mice): 1640 ± 323 µg·h/mL; AUC(0-inf) (stomach, normal mice): 1120 ± 207 µg·h/mL; Cmax (stomach, LPS-treated mice): 27200 ± 9320 ng/mL; Cmax (stomach, normal mice): 22300 ± 12400 ng/mL; MRT (stomach, LPS-treated mice): 73.3 ± 17.7 h; MRT (stomach, normal mice): 70 ± 14 h; Tmax (stomach, LPS-treated mice): 3.33 ± 1.15 h; Tmax (stomach, normal mice): 4.67 ± 3.06 h; half-life (stomach, t1/2, LPS-treated mice): 61.4 ± 13 h; half-life (stomach, t1/2, normal mice): 64 ± 16.5 h; Kp (AUC in tissue divided by AUC in blood) (LPS-treated mice, adipose): 2.57 ± 0.62; Kp (AUC in tissue divided by AUC in blood) (LPS-treated mice, brain): 0.59 ± 0.17; Kp (AUC in tissue divided by AUC in blood) (LPS-treated mice, heart): 4.27 ± 1.59; Kp (AUC in tissue divided by AUC in blood) (LPS-treated mice, stomach): 6.13 ± 0.87; lung AUC ratio, acutely inflamed vs normal mice (TET inhalation (i.t.) administration): 2.32; increase in systemic blood exposure (blood AUC ratio), LPS group vs normal/saline group (i.t. route): ~ 1.25 fold and 1.25 fold; Kp (AUC in tissue divided by AUC in blood) (normal mice, adipose): 2.39 ± 0.40; Kp (AUC in tissue divided by AUC in blood) (normal mice, brain): 0.97 ± 0.39; Kp (AUC in tissue divided by AUC in blood) (normal mice, heart): 5.05 ± 0.38; Kp (AUC in tissue divided by AUC in blood) (normal mice, intestine): 8.35 ± 0.67; Kp (AUC in tissue divided by AUC in blood) (normal mice, muscle): 2.04 ± 0.38; Kp (AUC in tissue divided by AUC in blood) (normal mice, stomach): 5.29 ± 0.66
